Consider 16 compounds from patent publication US4710500A, “1-(4'-fluorophenyl)-3,5-substituted indoles useful in the treatment of psychic disorders and pharmaceutical compositions thereof” (H. Lundbeck A/S, priority 1985, dated 1987).

Counter-ions that a name gives are not always drawn. Like-named read-outs stand apart in the source and are kept apart here.

The term ED50 denotes the dose at which the effect has come halfway, by size or by number of responders.

This assay has as its system methylphenidate-induced gnawing. In words: Methylphenidate antagonism. It counts as in vivo, mice.
Where [1] appears, read: Mus musculus, sc, read-out: MePh Antg. ED50 (sc).
Where [2] appears, read: Mus musculus, sc; read-out: MePh Antg. ED50 (sc).

Take `Cc1ccc2c(c1)c(C1CCN(C)CC1)cn2-c1ccc(F)cc1` [Lu 21-037, 1-(4'-Fluorophenyl)-5-methyl-3-(1-methyl-4-piperidyl)-1H-indole, hydrobromide]: the ED50 (Mus musculus, ip; i.p. test substance; mice; methylphenidate s.c. 60 mg/kg; read-out: MePh Antg. ED50(ip)) was 2.1 µmol/kg. For the compound `O=C1NCCN1CCN1CC=C(c2cn(-c3ccc(F)cc3)c3ccc(F)cc23)CC1` [Lu 21-046, oxalate], where the note is “Mus musculus, ip, read-out: MePh Antg. ED50(ip)”, the ED50 turned out to be 48.1 µmol/kg. As to `Fc1ccc(-n2cc(C3=CCNCC3)c3cc(Cl)ccc32)cc1` [Lu 23-147, 5-Chloro-1-(4'-fluorophenyl)-3-(1,2,3,6-tetrahydropridin-4-yl)-1H-indole], under setting [1], the ED50 is greater than 99 µmol/kg.

In the case of `O=C1NCCN1CCN1CC=C(c2cn(-c3ccc(F)cc3)c3ccc(Cl)cc23)CC1` [Lu 23-148, 5-Chloro-1-(4'-fluorophenyl)-3-(1-(2-imidazolidinon-1-ylethyl)-1,2,3,6-tetrahydropyridin-4-yl)-1H-indole], the ED50 under setting [1] was greater than 91 µmol/kg. In the case of `CN1CC=C(c2cn(-c3ccc(F)cc3)c3ccc(N)cc23)CC1` [Lu 23-149, 5-Amino-1-(4'-fluorophenyl)-3-(1-methyl-1,2,3,6-tetrahydropyridin-4-yl)-1H-indole, fumarate], the ED50 under setting [1] worked out at 0.45 µmol/kg. On the same count and under the same terms, to `Fc1ccc(-n2cc(C3=CCNCC3)c3cc(C(F)(F)F)ccc32)cc1` [Lu 23-155, 1-(4'-Fluorophenyl)-3-(1,2,3,6-tetrahydropyridin-4-yl)-5-trifluoromethyl-1H-indole] belongs 3.8 µmol/kg. `O=C1CCCN1CCN1CCC(c2cn(-c3ccc(F)cc3)c3ccc(C(F)(F)F)cc23)CC1` [Lu 23-158, 1-(4'-Fluorophenyl)-3-(1-(1-pyrrolidin-2-onylethyl)-4-piperidyl)-5-trifluoromethyl-1H-indole, fumarate]: under setting [2], the ED50 worked out at 2.9 µmol/kg. For `Fc1ccc(-n2cc(C3=CCNCC3)c3cc(F)ccc32)cc1` [Lu 23-159, 5-fluoro-1-(4'-fluorophenyl)-3-(1,2,3,6-tetrahydropyridin-4-yl)-1H-indole], the ED50 under setting [1] was determined as 47 µmol/kg. In the case of `CCCCCCCCCC(=O)OCCN1CCN(c2cn(-c3ccc(F)cc3)c3ccc(C(F)(F)F)cc23)CC1` [Lu 23-162], the ED50 under setting [2] came out at 1.7 µmol/kg. For the compound `CCCCCCCC/C=C\CCCCCCCC(=O)OCCN1CCN(c2cn(-c3ccc(F)cc3)c3ccc(C(F)(F)F)cc23)CC1` [Lu 23-163, 1-(4'-Fluorophenyl)-3-(4-(l-oleyloxyethyl)-1-piperazino)-5-trifluoromethyl-1H-indole, dihydrochloride], under setting [2], the ED50 turned out to be 1.1 µmol/kg. Regarding `OCCCN1CC=C(c2cn(-c3ccc(F)cc3)c3ccc(C(F)(F)F)cc23)CC1` [Lu 23-171, 1-(4'-Fluorophenyl)-3-(1-(3-hydroxypropyl)-1,2,3,6-tetrahydropyridin-4-yl) -5trifluoromethyl-1H-indole], under setting [1], the ED50 was 0.11 µmol/kg. Turning to `CN1CC=C(c2cn(-c3cccc(F)c3)c3ccc([N+](=O)[O-])cc23)CC1` [Lu 24-004, 1-(3'-Fluorophenyl)-5-nitro-3-(1-methyl-1,2,3,6-tetrahydropyridin-4-yl)-1H-indole, maleate], under setting [1], the ED50 turned out to be 1.1 µmol/kg. For `OCCN1CC=C(c2cn(-c3ccc(C(F)(F)F)cc3)c3ccccc23)CC1` [Lu 24-012, 3-(1-(2-Hydroxyethyl)-1,2,3,6-tetrahydropyridin-4-yl)-1-(4'-trifluoromethylphenyl-1H-indole, fumarate], the 50% effective dose (ED50) under setting [1] was greater than 20 µmol/kg. For the compound `CN1CC=C(c2cn(-c3nccs3)c3ccc(F)cc23)CC1` [Lu 24-013, 5-Fluro-3-(1-methyl-1,2,3,6-tetrahydropyridin-4-yl)-1-(2-thiazolo)-1H-indole, fumarate], the ED50 under setting [1] is greater than 20 µmol/kg.

Take `CN1CC=C(c2cn(-c3cccs3)c3ccc([N+](=O)[O-])cc23)CC1` [Lu 24-014, 3-(1-Methyl-1,2,3,6-tetrahydropyridin-4-yl)-5-nitro-1-(2-thienyl)-1H-indole, maleate]: under setting [1], the ED50 is greater than 22 µmol/kg. Consider `CN1CC=C(c2cn(-c3ccccn3)c3ccc([N+](=O)[O-])cc23)CC1` [Lu 24-015, 3-(1-Methyl-1,2,3,6-tetrahydropyridin-4-yl)-5-nitro-1-pyridin-2-yl-1H-indole], for which the ED50 under setting [1] was determined as 3.8 µmol/kg.
